Measurements as given in article PMC10671074, “Tumor Regression upon Intratumoral and Subcutaneous Dosing of the STING Agonist ALG-031048 in Mouse Efficacy Models” (International Journal of Molecular Sciences, 2023).
“And” between values parts separate entries of the source, which are not always exact repeats. Equal entries are not always repeated. Where two headings read alike, the source gives them in different places.

Columns and labels:
STING R232 = STING R232 (Homo sapiens, UniProt Q86WV6, H232R); test: Thermal shift binding assay (differential scanning fluorimetry)
Description: Each sample was prepared in a total volume of 40 μL that contained a 5× final concentration of SYPRO orange (Invitrogen, Carlsbad, CA, USA) in buffer (20 mM of HEPES pH 7.5, 150 mM of NaCl, 1 mM of DTT, and 1 mM of MgCl2) and 4 μM of STING C-terminal domain protein with and without a test article. […] The resulting fluorescence intensity from the raw dissociation curve data were used to determine the melting temperature for STING protein alone or with a compound. Melting temperature from protein alone was then subtracted from all melting temperatures of protein in the presence of compound, and a resulting melting temperature vs. compound concentration provided apparent Kd values as generated using a sigmoidal dose–response (variable slope) equation in GraphPadPrism version 8.0 (GraphPad Software, Boston, MA, USA).

[1] = tested on: primary human immature dendritic cells; test: Cytokine release from immature dendritic cells; type: cell-based
Description: The iMDDCs harvested on Day 5 (25,000 cells/well) after differentiation from normal human CD14+ CD16− monocytes were stimulated with STING agonists for 24–48 h. An aliquot of iMDDCs was also cultured in maturation media for 24–48 h and used as a control containing RPMI 1640, 10% FBS, 2 mM L-glutamine, and human TNF-α (6000 IU/mL, Miltenyi Biotec). The supernatant from the plate was frozen to assess cytokine production, and cells were analyzed via flow cytometry.
CD11c+ monocyte‐derived dendritic cells. E: Live cells were selected based on live/dead staining
and cell size. F: Dot plot of size SSC‐A versus SSC‐H for doublet exclusion, gating on singlet cells.
G: Dot plot of CD209 vs CD11c to select CD209+CD11+ high monocyte‐derived dendritic cells.
Figure S4. Increased release of cytokines from iDCs after stimulation for 24 hours with 50 μ M of the […]

[2] = tested on: THP-1 cells (STING isoform HAQ); test: THP-1 cytokine (IP-10) release assay; type: cell-based, human; conditions: overnight incubation, THP-1 (STING HAQ)
Description: THP-1 cells (American Type Culture Collection, Manassas, VA, USA) were maintained in maintenance media consisting of RPMI-1640, 1% Pen-Strep, 1% NEAA, 1% Glutagro™, 1% HEPES (all Corning), and 10% FBS (Sigma-Aldrich). On the day of dosing, cells were pelleted and resuspended in fresh media to a density of 1.6 × 10^6 cells/mL. An aliquot of […] was added to each well of a 96-well U-bottom plate for a total of 1.0 × 10^5 cells per well, and the final volume was adjusted to 150 µL using fresh media. Compound dilutions were prepared in maintenance media, and 50 µL of diluted compound were added to wells in duplicate. Cells were incubated with the compound overnight at 37 °C. The next day, plates were centrifuged, and the supernatant was collected in a 96-well flat-bottom plate. Human IP-10 was detected using the ProQuantum Immunoassay kit (Thermo Fisher Scientific, Waltham, MA, USA). Data were analyzed using a standard curve and reported as fold-increase over background. Graphs were generated using GraphPad™ Prism version 8.0.

[3] = tested on: primary human immature dendritic cells; test: Activation of primary human immature dendritic cells (CD83/CD86 flow cytometry); type: cell-based; conditions: for EC50: Homo sapiens, Dendritic cell, iDCs, 72 h after stimulation
From the text: Frozen human PBMCs (100 × 10^6 cells) were obtained from Stem Cell Technologies (Kent, WA, USA). Monocytes were purified from PBMCs using a CD14^+ pan-monocyte-negative isolation kit and an LS column (Miltenyi Biotec, Bergisch Gladbach, Germany). Magnetically labeled non-target cells were depleted by retaining them within a MACS column in the magnetic field of a MACS Separator, while highly purified unlabeled CD1 D16^− cells were collected and used to generate dendritic cells. To obtain immature monocyte-derived dendritic cells (iMDDCs), enriched monocytes were cultured in Mo-DC differentiation medium (Miltenyi Biotec) supplemented with human IL-4 (250 IU/mL, Miltenyi Biotec) and human GM-CSF (800 IU/mL, Miltenyi Biotec) at 37 °C in a T-150 flask in a 5% CO2 humidified incubator for 5 days; fresh media was replenished every 2–3 days.
[…] An aliquot of iMDDCs was also cultured in maturation media for 24–48 h and used as a control containing RPMI 1640, 10% FBS, 2 mM L-glutamine, and human TNF-α (6000 IU/mL, Miltenyi Biotec). The supernatant from the plate was frozen to assess cytokine production, and cells were analyzed via flow cytometry.
Cells were incubated with phosphate-buffered saline (PBS) containing 2% FBS and 2 mM of EDTA (FACS buffer) supplemented with 2 mg/mL of normal human IgG on ice for 15 min to block Fc receptors. The cell suspension was then incubated with a predetermined optimal concentration of the appropriate fluorescent dye-labeled monoclonal antibodies (mAbs) against human cell surface markers on ice for 30 min. The fluorescent dye-labeled mAbs against human cell surface molecules included anti-CD209, anti-CD14, anti-CD11c, anti-CD40, anti-HLA-DR, anti-CD86, and anti-CD83 (BD Biosciences, Franklin Lakes, NJ, USA or BioLegend, San Diego, CA, USA). In addition, a fixable live/dead stain (Thermo Fisher Scientific) at a dilution of 1:1000 was added to exclude dead cells. After several washes with FACS buffer, cells were resuspended in FACS buffer and analyzed on an Attune Nxt flow cytometer (Thermo Fisher Scientific) with FlowJo v10 software (BD Biosciences). An aliquot of the cells to be analyzed served as controls by using “fluorescent minus-one” to establish gates and determine the frequency of positively stained cells. Ultra-comp beads (Thermo Fisher Scientific) were used as single-stained controls to set up compensation on the flow cytometer.

Sequence of STING R232 (Q86WV6 139-379 H232R): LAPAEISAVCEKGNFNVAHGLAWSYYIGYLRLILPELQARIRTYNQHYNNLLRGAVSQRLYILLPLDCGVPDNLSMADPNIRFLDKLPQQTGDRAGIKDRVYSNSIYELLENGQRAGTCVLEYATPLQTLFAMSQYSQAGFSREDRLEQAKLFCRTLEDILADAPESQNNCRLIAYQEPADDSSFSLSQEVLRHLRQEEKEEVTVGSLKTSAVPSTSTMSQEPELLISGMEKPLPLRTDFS

Compound: CO[C@H]1[C@H]2OP(=O)(O)OC[C@@]34C[C@@H]3[C@@H](n3cnc5c(N)ncnc53)[C@H](O)[C@@H]4O[P@](=O)(S)OC[C@H]1O[C@H]2n1cnc2c(=O)[nH]c(N)nc21 [ALG-031048]
- Kd (STING R232): 2.71 µM
- Maximum temperature shift (STING R232; STING R232 thermal shift assay, mean±standard deviation): 13.8 °C and 13.8±2.98 °C
- IFN-γ and IL-6 release from iDCs ([1]; 24 h time point): either no increase or only a minimal increase
- Cytokine release from iDCs ([1]; treatment for 24 h, 50 μM (Figure S4)): release of key cytokines IFN-β, IP-10, MIP-1α, MCP-1, and TNF-α
- Release of IP-10 in THP-1 cells [2]: dose-dependent release of IP-10
- EC50 ([3]; read-out: EC50 CD83, Immature Dendritic Cells): 5.3 µM
- EC50 ([3]; read-out: EC50 CD86, Immature Dendritic Cells): 17.8 µM
- Surface expression of CD86 and CD83 (in words) ([3]; iDCs and, to a lesser degree, monocytes, 24 and 72 h): upregulated the surface expression of CD86 and CD83
